Data: patent publication US11642336B2, “5-HT2A agonists for use in treatment of depression” (priority 2019, dated 2023)
Like-named read-outs stand apart in the source and are kept apart here.

What was measured:
5-HT2B [1] = target: T1, 5-HT2B (Homo sapiens (Human), UniProt P41595); assay: IP assay (Eurofins, IP1 HTRF), HEK293 cells; assay type: cell-based; details: for EC50: duplicate determinations; for 5-HT2B Rmax: % of Rmax of 5-HT
human 5-HT2A [2] = target: T2, human 5-HT2A (Homo sapiens (Human), UniProt P28223); assay: cell-based; assay type: cell-based; details: for EC50: duplicate determinations; for agonist response at 5-HT2A: concentrations up to 100 μM
5-HT2C [3] = target: T3, 5-HT2C (Homo sapiens (Human), UniProt P28335); assay: IP assay (Eurofins, IP1 HTRF), HEK293 cells; assay type: cell-based; details: for 5-HT2C Rmax (%): % of Rmax of 5-HT
[4] = tested on: male Sprague Dawley rats treated with ACTH or vehicle; assay: forced swim test, adrenocorticotropic hormone (ACTH) model; assay type: in vivo
Description: The adrenocorticotropic hormone model (ACTH) model was conducted as previously described.^14 Male Sprague Dawley rats were used (age 7 weeks, N=50) (Taconic Biosciences A/S, Lille Skensved, Denmark). After 1 week habituation, the rats were given either 100 μg ACTH/animal/day s.c. (Adrenocorticotropic Hormone 1-24 (China Peptides, China)) at 10 a.m. for 14 days (n=30) or vehicle (VEH) consisting of 0.9% saline (n=20). At day 14, the rats were subjected to a pre-swim test (15 minutes). […] Preceding the FST, rat baseline mobility was determined in the (OFT). The OFT and the FST were conducted as described above.

D2 = D2 (Homo sapiens (Human), UniProt P14416); assay: radioligand competition binding assay (Psychiatric Drug Screening Program)
D2, sequence (P14416 whole entry, looked up): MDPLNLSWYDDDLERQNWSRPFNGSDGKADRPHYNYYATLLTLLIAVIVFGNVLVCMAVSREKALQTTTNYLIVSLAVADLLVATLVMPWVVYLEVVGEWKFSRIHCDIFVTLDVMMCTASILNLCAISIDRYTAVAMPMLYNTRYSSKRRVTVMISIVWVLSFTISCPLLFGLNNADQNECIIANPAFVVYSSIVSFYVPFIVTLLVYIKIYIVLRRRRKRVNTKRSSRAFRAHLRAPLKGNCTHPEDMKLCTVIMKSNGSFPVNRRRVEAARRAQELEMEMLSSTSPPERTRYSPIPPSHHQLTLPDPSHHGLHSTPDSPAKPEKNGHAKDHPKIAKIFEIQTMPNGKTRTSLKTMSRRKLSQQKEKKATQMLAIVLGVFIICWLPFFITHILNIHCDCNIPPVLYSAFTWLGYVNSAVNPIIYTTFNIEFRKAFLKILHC

D1 = D1 (Homo sapiens (Human), UniProt P21728); assay: as above
5-HT2B [5] = target: T1, 5-HT2B; details: % of the Rmax of 5-HT; cited from earlier work
5-HT1e = 5-HT1e (Homo sapiens (Human), UniProt P28566); assay: radioligand competition binding assay (Psychiatric Drug Screening Program)
5-HT1e, sequence (P28566 whole entry, looked up, species assumed): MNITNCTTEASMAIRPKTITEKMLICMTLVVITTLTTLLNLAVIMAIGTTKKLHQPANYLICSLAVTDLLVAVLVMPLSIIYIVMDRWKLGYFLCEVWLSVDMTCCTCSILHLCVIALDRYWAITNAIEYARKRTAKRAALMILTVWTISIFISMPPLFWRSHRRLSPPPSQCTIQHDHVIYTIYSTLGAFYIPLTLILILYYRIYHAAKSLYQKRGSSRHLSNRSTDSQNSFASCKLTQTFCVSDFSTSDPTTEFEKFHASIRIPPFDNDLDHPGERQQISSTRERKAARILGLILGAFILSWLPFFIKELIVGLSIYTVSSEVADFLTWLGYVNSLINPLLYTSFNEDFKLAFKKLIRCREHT

5-HT2C [6] = details: cited from earlier work
a1A = a1A (Homo sapiens (Human), UniProt P35348); assay: radioligand competition binding assay (Psychiatric Drug Screening Program)
a1A, sequence (P35348 whole entry, looked up): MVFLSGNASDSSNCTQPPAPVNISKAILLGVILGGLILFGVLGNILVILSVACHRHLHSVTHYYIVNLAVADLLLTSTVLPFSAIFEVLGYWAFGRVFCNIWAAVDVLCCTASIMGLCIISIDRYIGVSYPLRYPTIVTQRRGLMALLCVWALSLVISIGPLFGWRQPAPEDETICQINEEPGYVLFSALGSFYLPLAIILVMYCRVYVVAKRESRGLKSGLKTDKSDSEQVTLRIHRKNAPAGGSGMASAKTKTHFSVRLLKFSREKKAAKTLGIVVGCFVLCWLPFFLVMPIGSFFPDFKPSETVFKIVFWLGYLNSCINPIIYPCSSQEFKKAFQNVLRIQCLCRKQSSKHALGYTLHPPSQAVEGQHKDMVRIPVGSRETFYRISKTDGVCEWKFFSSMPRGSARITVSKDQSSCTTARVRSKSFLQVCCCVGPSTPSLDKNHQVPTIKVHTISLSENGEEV

D4 = D4 (Homo sapiens (Human), UniProt P21917); assay: as above
5-HT1B = 5-HT1B (Homo sapiens (Human), UniProt P28222); assay: as above
5-HT1B, sequence (P28222 whole entry, looked up, species assumed): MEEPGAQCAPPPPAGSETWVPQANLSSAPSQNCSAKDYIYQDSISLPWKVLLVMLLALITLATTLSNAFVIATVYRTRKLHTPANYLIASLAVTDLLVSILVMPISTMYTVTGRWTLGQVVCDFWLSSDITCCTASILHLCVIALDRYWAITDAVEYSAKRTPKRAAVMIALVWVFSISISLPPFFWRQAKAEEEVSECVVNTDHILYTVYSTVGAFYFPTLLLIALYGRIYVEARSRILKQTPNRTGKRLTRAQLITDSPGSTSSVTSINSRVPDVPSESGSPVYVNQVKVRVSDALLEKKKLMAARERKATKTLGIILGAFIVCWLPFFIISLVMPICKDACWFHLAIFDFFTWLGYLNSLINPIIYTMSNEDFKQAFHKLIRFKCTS

5-HT1A = 5-HT1A (Homo sapiens (Human), UniProt P08908); assay: as above
5-HT6 = 5-HT6 (Homo sapiens (Human), UniProt P50406); assay: as above
5-HT6, sequence (P50406 whole entry, looked up, species assumed): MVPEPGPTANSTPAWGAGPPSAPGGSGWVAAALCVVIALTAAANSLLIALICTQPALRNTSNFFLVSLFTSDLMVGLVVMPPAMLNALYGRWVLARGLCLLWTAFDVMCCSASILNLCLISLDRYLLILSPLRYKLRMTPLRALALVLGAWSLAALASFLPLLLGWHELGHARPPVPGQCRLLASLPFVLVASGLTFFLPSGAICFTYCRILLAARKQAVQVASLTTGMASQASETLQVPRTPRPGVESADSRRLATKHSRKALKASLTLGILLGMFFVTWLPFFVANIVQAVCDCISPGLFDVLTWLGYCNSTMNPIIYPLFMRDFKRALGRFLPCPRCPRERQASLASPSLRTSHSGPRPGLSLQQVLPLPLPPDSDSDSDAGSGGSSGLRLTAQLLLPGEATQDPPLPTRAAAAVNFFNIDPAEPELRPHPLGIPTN

D3 = D3 (Homo sapiens (Human), UniProt P35462); assay: as above
D5 = D5 (Homo sapiens (Human), UniProt P21918); assay: as above
5-HT5A = 5-HT5A (Homo sapiens (Human), UniProt P47898); assay: as above
5-HT5A, sequence (P47898 whole entry, looked up, species assumed): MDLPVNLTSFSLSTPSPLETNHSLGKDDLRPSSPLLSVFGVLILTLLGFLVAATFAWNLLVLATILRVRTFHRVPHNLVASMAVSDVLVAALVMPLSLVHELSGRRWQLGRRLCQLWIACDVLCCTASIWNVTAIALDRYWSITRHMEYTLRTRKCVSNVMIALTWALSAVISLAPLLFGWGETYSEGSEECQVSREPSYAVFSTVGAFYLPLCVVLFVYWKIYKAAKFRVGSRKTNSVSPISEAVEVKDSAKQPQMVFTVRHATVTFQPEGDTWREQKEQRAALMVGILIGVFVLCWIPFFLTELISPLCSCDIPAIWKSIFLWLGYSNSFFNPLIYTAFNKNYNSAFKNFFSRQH

a2C = a2C (Homo sapiens (Human), UniProt P18825); assay: as above
a2C, sequence (P18825 whole entry, looked up): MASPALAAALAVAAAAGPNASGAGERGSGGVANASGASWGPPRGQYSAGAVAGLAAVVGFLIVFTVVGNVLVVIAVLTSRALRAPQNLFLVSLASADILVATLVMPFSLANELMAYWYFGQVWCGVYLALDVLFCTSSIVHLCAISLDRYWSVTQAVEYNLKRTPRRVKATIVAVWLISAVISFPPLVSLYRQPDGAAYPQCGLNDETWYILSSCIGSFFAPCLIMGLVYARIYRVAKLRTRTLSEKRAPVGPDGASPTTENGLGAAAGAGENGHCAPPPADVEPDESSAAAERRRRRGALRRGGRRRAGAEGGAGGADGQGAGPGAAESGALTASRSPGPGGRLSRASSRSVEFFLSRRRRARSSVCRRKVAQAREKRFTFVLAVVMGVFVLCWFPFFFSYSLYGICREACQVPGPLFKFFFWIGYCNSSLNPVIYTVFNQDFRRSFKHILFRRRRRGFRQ

a1B = a1B (Homo sapiens (Human), UniProt P35368); assay: as above
a1B, sequence (P35368 whole entry, looked up): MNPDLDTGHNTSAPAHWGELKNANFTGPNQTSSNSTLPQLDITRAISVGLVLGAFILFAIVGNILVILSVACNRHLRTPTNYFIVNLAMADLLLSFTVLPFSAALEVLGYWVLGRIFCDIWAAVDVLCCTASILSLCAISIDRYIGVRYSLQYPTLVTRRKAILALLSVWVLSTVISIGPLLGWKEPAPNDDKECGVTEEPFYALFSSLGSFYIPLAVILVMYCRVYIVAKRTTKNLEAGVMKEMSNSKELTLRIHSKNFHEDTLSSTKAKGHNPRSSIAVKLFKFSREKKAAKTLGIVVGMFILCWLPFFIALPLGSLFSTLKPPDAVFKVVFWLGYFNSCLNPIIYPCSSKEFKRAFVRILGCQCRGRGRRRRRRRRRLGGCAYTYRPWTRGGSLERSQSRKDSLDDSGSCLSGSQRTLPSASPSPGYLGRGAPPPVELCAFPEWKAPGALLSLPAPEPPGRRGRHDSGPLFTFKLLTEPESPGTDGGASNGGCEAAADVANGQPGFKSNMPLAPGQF

5-HT7 = 5-HT7 (Homo sapiens (Human), UniProt P34969); assay: as above
5-HT7, sequence (P34969 whole entry, looked up, species assumed): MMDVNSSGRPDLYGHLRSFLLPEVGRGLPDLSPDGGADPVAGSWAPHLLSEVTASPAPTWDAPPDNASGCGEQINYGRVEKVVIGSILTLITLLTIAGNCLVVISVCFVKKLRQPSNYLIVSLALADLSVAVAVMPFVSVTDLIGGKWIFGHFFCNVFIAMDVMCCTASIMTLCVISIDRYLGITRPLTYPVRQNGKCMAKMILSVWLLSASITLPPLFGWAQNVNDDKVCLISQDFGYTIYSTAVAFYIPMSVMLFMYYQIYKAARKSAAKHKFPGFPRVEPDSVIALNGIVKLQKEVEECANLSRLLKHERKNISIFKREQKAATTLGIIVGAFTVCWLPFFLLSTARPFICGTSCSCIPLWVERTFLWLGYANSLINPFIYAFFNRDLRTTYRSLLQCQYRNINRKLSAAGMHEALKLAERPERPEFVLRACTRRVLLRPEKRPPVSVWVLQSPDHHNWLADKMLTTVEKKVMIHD

a2A = a2A (Homo sapiens (Human), UniProt P08913); assay: as above
a2A, sequence (P08913 whole entry, looked up): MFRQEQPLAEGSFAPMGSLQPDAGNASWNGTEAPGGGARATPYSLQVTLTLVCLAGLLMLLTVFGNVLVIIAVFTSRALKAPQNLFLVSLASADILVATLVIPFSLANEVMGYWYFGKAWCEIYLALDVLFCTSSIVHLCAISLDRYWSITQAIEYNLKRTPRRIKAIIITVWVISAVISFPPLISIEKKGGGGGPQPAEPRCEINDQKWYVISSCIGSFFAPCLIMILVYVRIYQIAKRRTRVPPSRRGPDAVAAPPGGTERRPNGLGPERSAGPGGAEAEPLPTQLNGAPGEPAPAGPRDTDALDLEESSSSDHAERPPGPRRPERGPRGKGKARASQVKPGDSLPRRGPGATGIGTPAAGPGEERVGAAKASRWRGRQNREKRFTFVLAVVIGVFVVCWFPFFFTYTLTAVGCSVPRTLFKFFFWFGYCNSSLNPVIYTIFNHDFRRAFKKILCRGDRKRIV

5-HT2A = details: cited from earlier work
5-HT1D = 5-HT1D (Homo sapiens (Human), UniProt P28221); assay: radioligand competition binding assay (Psychiatric Drug Screening Program)
5-HT1D, sequence (P28221 whole entry, looked up, species assumed): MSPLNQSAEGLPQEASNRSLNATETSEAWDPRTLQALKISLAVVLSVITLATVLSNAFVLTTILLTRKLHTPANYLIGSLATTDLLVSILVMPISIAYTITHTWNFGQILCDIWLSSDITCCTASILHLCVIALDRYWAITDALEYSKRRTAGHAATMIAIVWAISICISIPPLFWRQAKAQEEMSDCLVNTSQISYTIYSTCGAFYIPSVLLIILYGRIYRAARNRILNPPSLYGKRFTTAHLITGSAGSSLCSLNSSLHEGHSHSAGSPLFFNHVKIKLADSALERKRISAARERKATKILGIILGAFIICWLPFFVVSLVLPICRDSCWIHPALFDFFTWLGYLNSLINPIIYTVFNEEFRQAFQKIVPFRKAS

5-HT2C [7] = target: T3, 5-HT2C; assay: Ca2+/Fluo-4 assay, stable h5-HT2C-HEK293 cell line; assay type: cell-based; details: for EC50: agonist potency, n = 3-4;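 as to all read-outs here: Agonist-induced intracellular Ca2+ rise read by Fluo-4 fluorescence in HEK293 cells stably expressing the human 5-HT2C receptor, each compound run in duplicate on three or more occasions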
5-HT2A over 5-HT2C = details: cited from earlier work
human 5-HT2A [8] = target: T2, human 5-HT2A; assay: cell-based; assay type: cell-based; details: for 5-HT2A Rmax ± S.E.M: % of the Rmax of 5-HT; for agonist response at 5-HT2A / Selectivity EC50 5-HT2C/EC50 5-HT2A: Ca2+/Fluo-4 assay; for agonist response at 5-HT2A: concentrations up to 50 μM; for Selectivity EC50 5-HT2C/EC50 5-HT2A: bounds are conservative estimates
[9] = tested on: Flinders Sensitive Line (FSL) rats; assay: forced swim test, Flinders Sensitive Line (FSL) model; assay type: in vivo; details: one hour after i.p. administration, vs vehicle-treated FSL rats, FIG. 3
Description: Male Flinders line rats (Flinders Sensitive Line (FSL) and their control Flinders Resistant Line (FRL); 9-11 weeks of age; 228-336 g) from the colony maintained at (TNU), Aarhus University (originally derived from the colony at the University of North Carolina, USA) were housed in pairs (Cage 1291H Eurostandard Type III H, 425×266×185 mm, Techniplast, Buguggiate, Italy) at 20±2° C. on a 12-h light/dark cycle (lights on at 07:00 am). The animals had ad libitum access to chow pellets and tap water. The animal colony was protected from outside noise, and all experimental procedures were performed in specially equipped rooms within the vivarium. […]
The following groups were included in the experiment: FRL-vehicle (n=10), FSL-vehicle (n=10), FSL-ketamine (15 mg/kg S-ketamine, Pfizer) (n=8), and FSL-compound 8 (1.5 mg/kg) (n=10). […] A camera, located directly above the center of the field, recorded the session and the total distance moved was quantified using EthoVision XT video tracking software (version 11.0.928; Noldus Information Technology, Wageningen, The Netherlands).
The rat was placed in an acrylic plastic cylinder (60 cm in height, 24 cm in diameter) containing 40 cm of water (25±1° C.) for 7 min. A camera, located directly in front of the cylinder, recorded the session. […]

a2B = a2B (Homo sapiens (Human), UniProt P18089); assay: radioligand competition binding assay (Psychiatric Drug Screening Program)
5-HT2B [10] = target: T1, 5-HT2B; assay: fluorescence-based Ca2+ imaging assay (Eurofins), stable h5-HT2B cell line
5-HT2C [11] = target: T3, 5-HT2C; assay: biochemical; assay type: binding
5-HT2B [12] = target: T1, 5-HT2B; assay: radioligand competition binding assay (Psychiatric Drug Screening Program)
[13] = Rmax ± S.D., % of the Rmax of 5-HT
[14] = IP assay, duplicate determinations, read-out: 5-HT2C EC50
[15] = IP assay, up to 100 μM (Table 4)
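For 5-HT2B agonist activity (n.a./w.a.) in this document: agonist effect read as cellular IP1 production by HTRF using a europium cryptate anti-IP1 antibody donor and D2-labeled IP1 acceptor, eight compound concentrations in each cell line.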

## COc1cc(C(F)(F)F)c(OC)cc1CCN [Compound 2C-TFM, 4-trifluoromethyl-2,5-dimethoxyphenethylamine, reference compound]
5-HT2B [1]; 5-HT2B EC50 (nM)
  EC50: 81 nM
5-HT2B [1]
  5-HT2B Rmax: 81%
Human 5-HT2A [2]; IP assay, % of Rmax of 5-HT
  5-HT2A Rmax: 78%
Human 5-HT2A [2]; IP assay
  EC50: 0.0071 µM
5-HT2C [3]
  EC50: 0.0038 µM
5-HT2C [3]; IP assay
  Selectivity EC50 5-HT2C/EC50 5-HT2A: 0.53
  5-HT2C Rmax (%): 100%

## CN(C)CCCN1c2ccccc2CCc2ccccc21 [imipramine]
[4]; ACTH-treated rats, FIG. 4A
  immobility time in the forced swim test, ACTH-treated rats: lack of effect
[4]; vehicle-treated rats, 15 mg/kg i.p., FIG. 4B
  immobility time in the forced swim test, vehicle-treated rats: significant antidepressant-like effect

## CN(C)CCc1c[nH]c2cccc(O)c12 [Psilocin, psilocin]
D2
  Ki: > 10 µM
D1
  Ki: 20 nM
5-HT2B [5]
  Rmax (%) 5-HT2B: 45%
5-HT1e
  Ki: 44 nM
5-HT2C [6]; EC50 ± S.D.
  EC50: 30 ± 18 nM
5-HT2C [6]; [13]
  Rmax (%) 5-HT2C: 51 ± 37%
a1A
  Ki: > 10000 nM
D4
  Ki: > 10 µM
5-HT1B
  Ki: 305 nM
5-HT1A
  Ki: 63 nM
5-HT6
  Ki: 72 nM
D3
  Ki: 0.1 µM
D5
  Ki: > 10 µM
5-HT5A
  Ki: 70 nM
a2C
  Ki: 4400 nM
a1B
  Ki: > 10000 nM
5-HT7
  Ki: 72 nM
a2A
  Ki: 2000 nM
5-HT2A; EC50 ± S.D.
  EC50: […]
5-HT2A; [13]
  Rmax (%) 5-HT2A: […]
5-HT1D
  Ki: 19 nM

## COc1cc(C2CC[C@@H](c3ccccc3OC)NC2)c(OC)cc1Br (stereo partly drawn) [Compound 8a, reference compound]
5-HT2B [1]
  5-HT2B Rmax: 20%
5-HT2B [1]; read-out: 5-HT2B EC50
  EC50: 770 nM
Human 5-HT2A [2]; IP assay, % of Rmax of 5-HT
  5-HT2A Rmax: 94%
Human 5-HT2A [2]; IP assay
  agonist response at 5-HT2A: evoked significant agonist responses
  EC50: 2.3 µM
5-HT2C [7]; % of the Rmax of 5-HT
  5-HT2C Rmax ± S.E.M: 82 ± 3%
5-HT2C [7]; read-out: 5-HT2C EC50
  EC50: 2 µM
5-HT2C [7]; read-out: 5-HT2C [pEC50 ± S.E.M.] (converted)
  EC50: 1.95 µM
5-HT2C [3]; IP assay
  Selectivity EC50 5-HT2C/EC50 5-HT2A: 0.07
  5-HT2C Rmax (%): 80%
5-HT2C [3]; [14]
  EC50: 0.17 µM
5-HT2C [3]; IP assay, listed as compound 8a
  Selectivity EC50 5-HT2C/EC50 5-HT2A: selectivity towards 5-HT2C and 5-HT2B over 5-HT2A
5-HT2A over 5-HT2C
  5-HT2A-over-5-HT2C selectivity in terms of binding affinity: 13 fold
Human 5-HT2A [8]
  5-HT2A Rmax ± S.E.M: 87 ± 4%
  agonist response at 5-HT2A: evoked significant agonist responses
  Selectivity EC50 5-HT2C/EC50 5-HT2A: 4.1
Human 5-HT2A [8]; listed as compound 8a
  Selectivity EC50 5-HT2C/EC50 5-HT2A: only slight selectivity towards 5-HT2A over 5-HT2C
Human 5-HT2A [8]; agonist potency, n = 3-4, read-out: 5-HT2A EC50
  EC50: 0.48 µM

## COc1cc(CC(C)N)c(OC)cc1I (stereo not drawn) [DOI, 2,5-Dimethoxy-4-iodoamphetamine, reference compound]
5-HT2B [1]
  5-HT2B Rmax: 79%
Human 5-HT2A [2]
  5-HT2A Rmax: 89%
5-HT2C [3]
  EC50: 0.0091 µM
5-HT2C [3]; IP assay
  5-HT2C Rmax (%): 89%

## CN[C@]1(c2ccccc2Cl)CCCCC1=O [(S)-ketamine]
[9]
  immobility time in the forced swim test: reduce the immobility time

## COc1cc(C(F)(F)F)c(OC)cc1[C@@H]1CCCNC1.Cl [Compound 8, (S)-3-(2,5-Dimethoxy-4-(trifluoromethyl)phenyl)piperidine hydrochloride]
a2B
  Ki: 820 nM
5-HT1e
  Ki: 762 nM
a1A; read-out: Ki (nM) a1A
  Ki: > 10000 nM
5-HT1A
  Ki: 330 nM
Human 5-HT2A [2]; IP assay, % of Rmax of 5-HT
  5-HT2A Rmax: 74%
5-HT6
  Ki: 623 nM
5-HT2B [10]; % of the Rmax of 5-HT
  5-HT2B Rmax: 84%
5-HT2B [10]; agonist potency
  EC50: 0.28 µM
5-HT2C [7]; read-out: 5-HT2C EC50
  EC50: > 50 µM
5-HT2C [11]
  Ki: 42 nM
a2C
  Ki: > 10000 nM
a1B; read-out: Ki (nM) a1B
  Ki: > 10000 nM
5-HT7
  Ki: 2360 nM
5-HT2B [12]
  Ki: 85 nM
a2A; read-out: Ki (nM) a2A
  Ki: 1400 nM
5-HT1D; read-out: Ki (nM) 5-HT1D
  Ki: 663 nM
Human 5-HT2A [8]
  5-HT2A Rmax ± S.E.M: 47 ± 3%

## COc1cc([C@H]2CC[C@H](c3ccccc3OC)NC2)c(OC)cc1Br [Compound 8b, reference compound]
5-HT2B [1]; read-out: 5-HT2B EC50
  EC50: > 100000 nM
5-HT2B [1]; up to 100 μM (Table 4)
  5-HT2B agonist activity (n.a./w.a.): n.a. (no agonist activity: the compound did not evoke significant responses at concentrations up to 100 μM)
Human 5-HT2A [2]; IP assay
  agonist response at 5-HT2A: no agonist response
  EC50: > 100 µM
Human 5-HT2A [2]; [15]
  5-HT2A agonist activity (n.a./w.a.): n.a. (no agonist activity: the compound did not evoke significant responses at concentrations up to 100 μM)
5-HT2C [7]; tested up to 50 μM
  5-HT2C agonist activity (n.a./w.a.): w.a. [@ 10-50 μM]
5-HT2C [3]; [14]
  EC50: > 100 µM
5-HT2C [3]; [15]
  5-HT2C agonist activity (n.a./w.a.): w.a.
5-HT2A over 5-HT2C
  5-HT2A-over-5-HT2C selectivity in terms of binding affinity: 27 fold
Human 5-HT2A [8]
  agonist response at 5-HT2A: no agonist response
Human 5-HT2A [8]; tested up to 50 μM
  5-HT2A agonist activity (n.a./w.a.): w.a. [@ 10-50 μM]
